Where “and” joins values, the source holds several entries; their conditions need not be identical. Equal values may be shown once. Marks after values point to notes of the source that are not given here.
What was measured:
[1] = tested on: Capan-1 human pancreatic cancer cell line; conditions: Capan-1 in vitro; cited from earlier work
Capan-1 xenograft tumor = conditions: subcutaneous, doses smaller than 1 mg/kg/day; cited from earlier work
[2] = tested on: MCF-7 (human breast adenocarcinoma); assay: Clonogenic survival (surviving fraction) of MCF-7 cells after radiation or chemotherapeutic agent; assay type: cell-based
[3] = tested on: acidic vesicular organelles (AVO) in MCF-7 cells; assay: Mean red/green fluorescence ratio in acridine orange stained cells by flow cytometry; assay type: cell-based, human; conditions: 500 nM bafilomycin A1 30 minutes prior to acridine orange
Description: bFGF was added to cultures of MCF-7 cells at 10 ng/ml for 48 hours. TNF was added at 2.3 nM for 48 hours. PMA was added for 1 hour at a concentration of 30 nM, followed by rinsing of the cells and incubation for an additional 48 hours.
Cell staining was performed according to standard techniques (Arvan et al., 1984, J. Bio. Chem. 259:13567-13572; Mains and May, 1988, J. Biol. Chem. 263:7887-7894; Traganos and Darzynkiewicz, Methods in Cell Biology 41:185-194, Academic Press). Acridine orange (Polysciences, Warrington, Pa.) was added to a final concentration of 1 μg/ml for 15 minutes. Bafilomycin A1 (Sigma Chemical Co., St. Louis, Mo.) was dissolved in DMSO and added to the cells 30 minutes prior to the addition of acridine orange. LysoSensor Blue DND-167 (Molecular Probes, Eugene, Oreg.) at a final concentration of 10 μM was added for 8 minutes. Pictures were obtained with a fluorescence microscope (Olympus BH-2 RFCA), equipped with a mercury-100 W lamp, 490 nm band pass blue excitation filters, 500 nm dichroic mirror and a 515 nm long pass barrier filter. Images of control and irradiated cells were recorded on Kodak Elite II 100 ASA film for color slides by 4 seconds exposure.
In acridine orange stained cells the cytoplasm and nucleolus fluoresce bright green and dim red, while acidic compartments fluoresce bright red (Mains and May, 1988, J. Biol. Chem. 263:7887-7894; Traganos and Darzynkiewicz, Methods in Cell Biology Vol. 41, pp. 185-194, Academic Press). The intensity of the red fluorescence is proportional to the degree of acidity and/or the volume of the cellular acidic compartment. Therefore, by comparing the mean red/green fluorescence ratio within different cell populations, a change in the degree of acidity and/or the fractional volume of the cellular acidic compartment could be measured. Cells were stained with acridine orange for […], removed from the plate with trypsin-EDTA and collected in phenol red-free growth medium. Green (510-530 nm) and red (>650 nm) Fluoresence emission from 10,000 cells illuminated with blue (488 nm) excitation light was measured with a FACSCalibur from Becton Dickinson (San Jose, Calif.) using CellQuest software. The red to green fluorescence ratio for individual cells was calculated using FlowJo software (TREE STAR, Inc., San Carlos, Calif.). To control for possible effect of trypsinization on the measured red to green fluorescence ratio, the ratios were compared by flow cytometry with those obtained with a Laser Scanning Microscope (LSM510 from Zeiss). Stained cells, grown on cover glass, were illuminated with a 488 nm argon laser beam. The red (>650 nm) to green (505-545 nm) fluorescence ratio of an entire image was obtained using software LSM 510 version 2.01 SP2. These measurements yielded similar results to those obtained with flow cytometry. All determinations of red to green fluorescence ratio reported in this section were obtained via flow cytometry.

V-ATPase = V-ATPase (Homo sapiens, UniProt P27449); conditions: binding to V-ATPase; Drose and Altendorf, 1997; cited from earlier work
V-ATPase, sequence (P27449 whole entry): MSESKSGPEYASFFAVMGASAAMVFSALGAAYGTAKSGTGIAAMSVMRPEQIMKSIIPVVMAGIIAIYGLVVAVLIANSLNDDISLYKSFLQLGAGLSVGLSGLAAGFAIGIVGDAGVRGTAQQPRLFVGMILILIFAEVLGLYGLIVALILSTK

F and P-type ATPases = conditions: cited from earlier work
[4] = tested on: LoVo (human colon adenocarcinoma); assay: Clonogenic survival (surviving fraction) of LoVo cells after radiation or chemotherapeutic agent; assay type: cell-based
Description: MCF-7 (human breast adenocarcinoma), LoVo (human colon adenocarcinoma) and LNCaP (human prostate carcinoma) were obtained from the American Type Culture Collection. Cells were maintained as described in Paglin et al., 1997, Biochem. Biophs. Res. Comm. 237:678-684). Irradiation was carried out 48 hours post-plating (T0) at room temperature using a Cs-137 irradiator (Sheperd Mark-I, model 68, SN643) at a dose rate of 2.43-2.32 Gy/min. Bovine aortic endothelial cells were grown and treated with H2O2 as described in Haimovitz-Friedman et al., 1994, J. Exp. Med. 180:525-535 and Verhij et al., 1996, Nature 380:75-79. Phorbol 12-myristate 13-acetate (PMA; Alexis Biochemicals Corp., San Diego, Calif.) was dissolved in dimethyl sulfoxide (DMSO) and added to cells for the duration of one hour. The final DMSO concentration was 0.03%. The cells were then rinsed with warm growth medium before being returned to the incubator for an additional 48 hours.
Cells were plated in growth medium at a density of 30-90 cells per square centimeter and irradiated 22 hours later. Each experimental condition was done in quintet or triplicate. Cells were irradiated at room temperature in Cs-137 Irradiator (Sheperd Mark-I, Model 68, SN 643) at a rate of 2.43-2.32 Gy/min. […] For determination of their red to green ratio, colonies were processed as described above. For determination of surviving fractions cells were stained with crystal violet and colonies containing 50 cells or more were counted with a dissecting microscope. The surviving fraction was defined as the ratio between the plating efficiencies of irradiated and non-irradiated cells and was calculated at each dose level according to Hall and Phill (1994, […] for the Radiologist, 4th Edition, J. Lippincott Co., Philadelphia).

In the case of bafilomycin A1, the “concentrations reported to induce apoptosis” value [1] is listed as “greater than 10 nM”, the “effect on Capan-1 xenograft tumor” value (Capan-1 xenograft tumor) is listed as “apoptotic death of Capan-1 cells in their xenograft tumor and overall shrinkage of the tumors” and the “survival, column Adriamycin” value ([2]; Table 15, Bafilomycin 2 nM + 100 nM adriamycin, average of two plates) is listed as “(0.56; 0.58)0.57*”. The “cell survival, Bafilomycin A1 (2 nM)” value ([2]; Table 18, Bafilomycin A1 2 nM, Etoposide 0 μg/ml) was 0.9 ± 0.09, the “decrease of survival in the presence of etoposide” value ([2]; bafilomycin 2 nM, etoposide 0.05 μg/ml, Table 18) was 54% and the “radiation-induced increase of mean red/green fluorescence ratio” value ([3]; 24 hours following 10 Gy) was “inhibited its radiation-induced increase”. The “mean red/green fluorescence ratio in unirradiated cells” value ([3]; unirradiated) was “decreased”, the Kd (V-ATPase) was 10 nM and the “concentration range at which F and P-type ATPases activities are affected” value (F and P-type ATPases) was “μM range”. The “decrease of survival of cells exposed to Adriamycin” value ([4]; 2 nM bafilomycin, 100 nM Adriamycin) was 22%, the decrease of survival ([4]; 2 nM bafilomycin, 3 Gy, Table 11 and Table 12) was 43% and 24% and the “decrease of resistance to Adriamycin” value ([4]; 2 nM bafilomycin, Adriamycin 100 nM, 48 hours) was 35%. For the same substance, the decrease of survival ([4]; 2 nm bafilomycin A1, 2 Gy) was 25%, the decrease of survival ([4]; 2 nm bafilomycin A1, 3 Gy) was 30% and the “Surviving Fraction 0 Gy” value ([4]; Table 11, Bafilomycin A1 2 nM) was 1.14 ± 0.09. For the same substance, the “Surviving Fraction 3 Gy” value ([4]; Table 11, Bafilomycin A1 2 nM, 3 Gy) was 0.24 ± 0.08, the “Surviving Fraction 0 Gy” value ([4]; Table 11, Bafilomycin A1 4 nM) was 1.01 ± 0.03 and the “Surviving Fraction 3 Gy” value ([4]; Table 11, Bafilomycin A1 4 nM, 3 Gy) was 0.23 ± 0.02. The “Surviving Fraction 0 Gy” value ([4]; Table 11, Bafilomycin A1 8 nM) was 0.84 ± 0.12, the “Surviving Fraction 3 Gy” value ([4]; Table 11, Bafilomycin A1 8 nM, 3 Gy) was 0.19 ± 0.04 and the “Surviving Fraction 0 Gy” value ([4]; Table 12, Bafilomycin 2 nM) was 0.92 ± 0.05. The “Surviving Fraction 3 Gy” value ([4]; Table 12, Bafilomycin 2 nM, 3 Gy) was 0.16 ± 0.01, the “Surviving Fraction 0 Gy” value ([4]; Table 12, Bafilomycin 4 nM) was 0.84 ± 0.03 and the “Surviving Fraction 3 Gy” value ([4]; Table 12, Bafilomycin 4 nM, 3 Gy) was 0.08 ± 0.02. The “Surviving Fraction 2 nM Bafilomycin” value ([4]; Table 13, 2 nM Bafilomycin, Dose 0 Gy) was 0.78 ± 0.05, the “Surviving Fraction 2 nM Bafilomycin” value ([4]; Table 13, 2 nM Bafilomycin, Dose 2 Gy) was 0.24 ± 0.03 and the “Surviving Fraction 2 nM Bafilomycin” value ([4]; Table 13, 2 nM Bafilomycin, Dose 3 Gy) was 0.11 ± 0.03. For the same substance, the “Surviving Fraction 2 nM Bafilomycin” value ([4]; Table 14, 2 nM Bafilomycin + Adriamycin 50 nM) was 0.73 ± 0.08, the “Surviving Fraction 2 nM Bafilomycin” value ([4]; Table 14, 2 nM Bafilomycin + Adriamycin 100 nM) was 0.60 ± 0.05 and the “Surviving Fraction 2 nM Bafilomycin” value ([4]; Table 14, 2 nM Bafilomycin + Adriamycin 150 nM) was 0.38 ± 0.03. The “Surviving Fraction 2 nM Bafilomycin” value ([4]; Table 14, 2 nM Bafilomycin, Adriamycin 0 nM) was 0.93 ± 0.05, the “survival, Adriamycin 100 nM” value ([4]; Table 17, Bafilomycin A1 2 nM + Adriamycin 100 nM, 48 hours) was 0.65 ± 0.05 and the “survival (head of column empty)” value ([4]; Table 17, Bafilomycin A1 2 nM alone, 48 hours) was 0.86 ± 0.04. For the same substance, the “survival, Adriamycin 100 nM” value ([4]; Table 17, Bafilomycin A1 4 nM + Adriamycin 100 nM, 48 hours) was 0.4 ± 0.01, the “survival (head of column empty)” value ([4]; Table 17, Bafilomycin A1 4 nM alone, 48 hours) was 0.61 ± 0.04 and the “cell survival, Bafilomycin (2 nM)” value ([4]; Table 19, Bafilomycin 2 nM + Etoposide 0.05 μg/ml) was 0.59 ± 0.08. For the same substance, the “cell survival, Bafilomycin (2 nM)” value ([4]; Table 19, Bafilomycin 2 nM, Etoposide 0 μg/ml) was 1.16 ± 0.07 and the “decrease of survival in the presence of etoposide” value ([4]; bafilomycin 2 nM, etoposide 0.05 μg/ml) was 25%.
